In ChEMBL document CHEMBL3885861, “Open TG-GATES”:

Species on record: Rattus norvegicus
Experiment: Open TG-GATES - Regimen: Daily Repeat
Format: toxicity, organism-based, Sprague-Dawley
Parameters: regimen Daily Repeat, gender Male, age 6 weeks
Settings: in vivo, po, 15 mg/kg, route gavage, dose level Low; for APTT / Bas / Eos / Fbg / Hb / Ht / Lym / MCHC / MCV / Mono / Neu / PT / Plat / RBC / Ret / WBC: tissue Blood
[1] = 72 h, tissue Kidney, time 3 day
[2] = 72 h, tissue Plasma, time 3 day

Work on `C1CCC(C(CC2CCCCN2)C2CCCCC2)CC1` (configuration not stated) [PERHEXILINE] yielded a TERMINAL_BW (72 h, time 3 day) of 221.1 g, an APTT (72 h, time 3 day) of 22 s and a Bas (72 h, time 3 day) of 0%. The Eos (72 h, time 3 day) was 0.8%, the Fbg (72 h, time 3 day) was 313.4 mg/dL and the Hb (72 h, time 3 day) was 13.4 g/dL. It also gave a Ht (72 h, time 3 day) of 39.5%, a Lym (72 h, time 3 day) of 82.4% and an MCHC (72 h, time 3 day) of 33.7%. The MCV (72 h, time 3 day) was 62.1 fL, the Mono (72 h, time 3 day) was 1.6% and the Neu (72 h, time 3 day) was 14.2%. For the same compound, the PT (72 h, time 3 day) was 16.6 s, the Plat (72 h, time 3 day) was 127.5 x10_4/uL and the RBC (72 h, time 3 day) was 637.8 x10_4/ul. For the same compound, the Ret (72 h, time 3 day) was 5.8%, the WBC (72 h, time 3 day) was 90.6 x10_2/uL and the KIDNEY_L [1] was 1 g. It also gave a KIDNEY_R [1] of 1 g, a KIDNEY_TOTAL [1] of 2 g and an LIVER (72 h, tissue Liver, time 3 day) of 10.6 g. The ALP [2] was 1691.8 IU/L, the ALT [2] was 40.6 IU/L and the AST [2] was 69.8 IU/L. The BUN [2] was 16.2 mg/dL, the CRE [2] was 0.2 mg/dL and the Ca [2] was 10.8 mg/dL. For the same compound, the Cl [2] was 106.4 meq/L, the DBIL [2] was 0 mg/dL and the GLC [2] was 186.2 mg/dL. The IP [2] was 6.6 mg/dL, the K [2] was 4.2 meq/L and the LDH [2] was 253.2 IU/L. The Na [2] was 142.6 meq/L, the PL [2] was 150 mg/dL and the RALB [2] was 3.1 g/dL. It also gave a TBIL [2] of 0.008 mg/dL, a TC [2] of 74 mg/dL and a TG [2] of 131 mg/dL. It also gave a TP [2] of 5.7 g/dL, a gamma-GTP [2] of 1 IU/L and a TERMINAL_BW ([…], time 7 day) of 248.3 g. It also gave a TERMINAL_BW ([…], time 14 day) of 309.8 g, a TERMINAL_BW ([…], time 28 day) of 362.5 g and an APTT ([…], time 7 day) of 22.8 s. It also gave a Bas ([…], time 7 day) of 0%, an Eos ([…], time 7 day) of 1% and a Fbg ([…], time 7 day) of 313.2 mg/dL. It also gave a Hb ([…], time 7 day) of 13.6 g/dL, a Ht ([…], time 7 day) of 39.9% and a Lym ([…], time 7 day) of 79.4%. For the same compound, the MCHC ([…], time 7 day) was 34%, the MCV ([…], time 7 day) was 62.5 fL and the Mono ([…], time 7 day) was 2.2%. The Neu ([…], time 7 day) was 16.6%, the PT ([…], time 7 day) was 16 s and the Plat ([…], time 7 day) was 115.3 x10_4/uL. The RBC ([…], time 7 day) was 639.4 x10_4/ul, the Ret ([…], time 7 day) was 5.3% and the WBC ([…], time 7 day) was 110.7 x10_2/uL. For the same compound, the APTT ([…], time 14 day) was 23.1 s, the Bas ([…], time 14 day) was 0% and the Eos ([…], time 14 day) was 0.4%. The Fbg ([…], time 14 day) was 320.2 mg/dL, the Hb ([…], time 14 day) was 14.9 g/dL and the Ht ([…], time 14 day) was 42.6%. The Lym ([…], time 14 day) was 82.8%, the MCHC ([…], time 14 day) was 35% and the MCV ([…], time 14 day) was 60.8 fL. It also gave a Mono ([…], time 14 day) of 1.6%, a Neu ([…], time 14 day) of 13.8% and a PT ([…], time 14 day) of 16.1 s. The Plat ([…], time 14 day) was 112 x10_4/uL, the RBC ([…], time 14 day) was 702.2 x10_4/ul and the Ret ([…], time 14 day) was 3.7%. It also gave a WBC ([…], time 14 day) of 125.7 x10_2/uL, an APTT ([…], time 28 day) of 22.8 s and a Bas ([…], time 28 day) of 0%. The Eos ([…], time 28 day) was 1%, the Fbg ([…], time 28 day) was 313.2 mg/dL and the Hb ([…], time 28 day) was 13.6 g/dL. The Ht ([…], time 28 day) was 39.9%.
